{
  "source": "patent US9873883B2",
  "about": "“Glyphosate resistant plants and associated methods” (Dow AgroSciences LLC, priority 2012, dated 2018)",
  "key": {"[1]": {"target": "T1, Mariprofundus ferrooxydans EPSP synthase DGT-14 v1, native wild type (GENBANK ZP_01452683; SEQ ID NO:17) (Mariprofundus ferrooxydans, UniProt Q0EYT4)", "T1 construct": "pET28, N-terminal 6xHis and thrombin site, E. coli, IMAC purified", "experiment": "In vitro kinetic assay (inorganic phosphate production, malachite green)", "assay_type": "biochemical", "conditions": "IC50 (glyphosate)", "description": "One enzyme that was identified was DGT-14 (GENBANK ACC NO: ZP_01452683) from Manprofundus ferrooxydans. […] One of these enzymes, DGT-11 (SEQ ID NO:5), contains a natural alanine at an analogous position within the EPSP synthase enzyme as that of the G96A mutation which was introduced into the E. coli version of the enzyme.\nSite directed mutagenesis was carried out on the synthetic dgt-14 v6 to confirm the role of the alanine that was introduced at the glycine residue of amino acid residue 101. THE QUICK CHANGE II® kit from Stratagene (Santa Clara, Calif.) was used to perform the mutagenesis. The following primers were designed to make the amino acid switch. […]\nCell pellets from 1 L cultures were resuspended in 20-30 mL Buffer A (50 mM HEPES pH 7.5, 150 mM KCl, 2 mM DTT, 1 mM EDTA, 20 mM imidazole, and 5% glycerol). […] Samples were typically diluted 1:50 and the UV-visible spectrum was recorded from 240-700 nm on a Cary50 Bio UV-visible spectrophotometer. A theoretical extinction coefficient was then used to calculate the protein concentration based on the absorbance at 280 nm (ExPASy, Geneva, Switzerland).\nThe enzyme activities of wild-type (WT) and mutant DGTs were measured by inorganic phosphate (Pi) production in a modified procedure described by Lanzetta et al., (1979). […]"}, "[2]": {"system": "T0 corn", "experiment": "Postemergence herbicide tolerance in dgt-14 transformed T0 corn", "assay_type": "in vivo, Zea mays", "conditions": "example written in present tense", "description": "T0 events are allowed to acclimate in the greenhouse and are grown until two to four new, normal looking leaves emerge from the whorl (i.e., plants that transition from tissue culture to greenhouse growing conditions). Plants are grown at 27° C. under 16 hour light:8 hour dark conditions in the greenhouse. The plants are then treated with commercial formulations of Durango DMA™ (containing the herbicide glyphosate) with the addition of 2% w/v ammonium-sulfate. Herbicide applications are made with a track sprayer at a spray volume of 187 L/ha, 50-cm spray height. T0 plants are sprayed with a range of glyphosate from 280-4480 g ae/ha glyphosate, which is capable of significant injury to untransformed corn lines. A lethal dose is defined as the rate that causes >95% injury to the B104 inbred.\nSelected T0 plants are selfed or backcrossed for further characterization in the next generation. Additional experiments include a 100 plant progeny test which is conducted on chosen dgt-14 lines containing the T1 plants. All plants are sprayed with 140-1120 g ae/ha glufosinate or 105-1680 g ae/ha glyphosate as previously described. […] At fourteen DAT, resistant and sensitive plants are counted to determine the percentage of lines that segregated as a single locus, dominant Mendelian trait (3R:1S) as determined by Chi square analysis. […]"}},
  "data": [
    {"smiles": "O=C(O)CNCP(=O)(O)O", "note": "[glyphosate, N-(phosphonomethyl)glycine]", "values": [
      {"measurement": "IC50", "setting": "[1]; at 60 μM PEP", "value": 440, "unit": "µM"},
      {"measurement": "IC50", "setting": "[1]; at 1 mM PEP", "value": "> 20200", "unit": "µM"},
      {"measurement": "glyphosate concentration controlling non-transformed plants", "setting": "[2]", "value": "≥ 280", "unit": "g ae/ha"}
    ]}
  ]
}
